According to US8778966B2, “Quinolinone derivatives as PARP and tank inhibitors” (Janssen Pharmaceutica, NV, priority 2007, dated 2014):

How the values were obtained:
HCT116 cells = test: Mitotic arrest assay on HCT116 cells (phospho-histone H3 Ser10); format: cell-based, human; settings: lowest active dose; for minimal effective concentration: Homo sapiens, HCT-116, HCT116 cells, read-out: Mitotic arrest HCT116 LAD (converted)
Description: Phosphorylation of histone H3 is tightly correlated with chromosome condensation during both mitosis and meiosis. The assay is a cellular immunosorbent assay wherein the sole antibody is labelled with a detectable conjugate. The phospho-histone H3 (ser10) antibody detects endogenous levels of histone H3 only when phosphorylated at serine 10. […] In parallel with antibody detection, the nuclei of the cells are stained with Hoechst 33342 for cell-counting. Cells are detected and analysed using the InCell Analyzer 1000 from GE Healthcare. Since both the antibody-detection as well as the Hoechst-staining are in the nucleus, the dual area object intensity algorithm is used for analysing the wells.
All compounds tested were dissolved in DMSO and further dilutions were made in culture medium. Final DMSO concentrations never exceeded 0.1% (v/v).
HCT116 cells (supplier: ATCC) (human colon carcinoma cell line) were cultivated in Mc Coy's 5 A medium (supplier: Gibco) supplemented with 10% foetal calf serum (FCS), 2 mM L-glutamine and gentamycin at 37° C. in a humidified incubator with 5% CO2.
HCT116 cells were seeded at 20.000 cells per well in a 96 well plate (black/clear bottom, poly-D-lysine coated, supplier Greiner), cultured overnight to adhere to the bottom of the plate and treated with compound for 6 hours at 37° C. in a humidified incubator. After incubation, the medium was removed and cells were fixed using 100 μl/well formaldehyde (Accustain®, Formaline solution 10% neutral buffered, contains 4% formaldehyde w/v, supplier: Sigma) was added. After incubation for 15 minutes at room temperature, the formaldehyde was removed and cells were incubated with methanol (−20° C.) for 15 minutes at room temperature. After incubation, cells were washed once with phosphate-buffered saline (PBS —CaCl2, —MgCl2, suppier: Gibco)/0.05% Tween 20. The anti-phospho-histone H3 (Ser10) Alexa Fluor 488 antibody (supplier: Cell signalling) is used for detection of the cells inmitosis. The antibody was diluted 1/50 in 5% bovine serum albumins (BSA) and 50 μl/well was used for incubation overnight at room temperature in the dark.
A 1/2000 dilution of Hoechtst 33342 (10 mg/ml, supplier: Invitrogen) was made and 100 μl/well was added for at least 30 minutes before acquiring images. The absorbance at dual wavelengths of 360/480 nm was measured using the InCell Analyzer 1000 from GE Healthcare and the results were then analyzed.
For each experiment, controls (containing no drug) and a blank incubation (containing no cells or drugs) were run in parallel. Analysis was done in triplicate. Low cell count wells were invalidated. The blank value was subtracted from all control and sample values and divided by the standard deviation of the measurements. The compounds were considered active when the obtained value (sigma) was >5. Herein the effects of test compounds are expressed as the lowest dose giving a sigma value of >5 (LAD) (see table F-2).

PC-3 cells = test: Antiproliferative activity, Alamar Blue assay, PC-3 cells; format: cell-based, human; settings: for IC50: Homo sapiens, PC-3, PC3 cells, read-out: PC3 antiproliferative activity pIC50 (converted)
Method: Human prostate cancer PC-3 cells obtained from the ATCC were cultured in HAM′S F12 medium supplemented with 1 mM Sodium Pyruvate, 1.5 g/L Sodium Bicarbonate, 50 μg/ml gentamicin, non-essential amino acids and 10% fetal calf serum.
Resazurin was purchased from Aldrich (Prod. No. 199303). Potassium ferrocyanide, potassium ferricyanide, KH2PO4 and K2HPO4 were purchased from Sigma (Prod. Nos. P9387, P8131, P5655 and P8281, respectively).
Potassium Phosphate Buffer 0.1 M (PPB) was made as follows: 2.72 gram KH2PO4 and 13.86 gram K2HPO4 were dissolved in 500 ml milli-Q H2O, the pH was adjusted to pH 7.4 and the volume was brought to 1 litre with milli-Q H2O; the buffer was filter sterilised and stored at room temperature. Resazurin stock solution (PPB-A) was prepared fresh by dissolving 45 mg resazurin in 15 ml PBS. 30 mM potassium ferricyanide (PPB-B) was prepared by dissolving 0.987 gram potassium ferricyanide in 100 ml PPB. 30 mM potassium ferrocyanide (PPB-C) was prepared by dissolving 1.266 gram potassium ferrocyanide in 100 ml PPB.
Mixture of PPB-A, PPB-B and PPB-C was prepared by mixing equal volumes of the respective solutions. Resazurin work solution (herein termed “Alamar Blue” solution) was prepared by diluting said mixture 20×(vol/vol) in PPB and filter sterilising; the Alamar Blue solution could be kept at 4° C. for a maximum of 2 weeks.
For experiments in 384 wells plates the cells were seeded at a density of 4.5×10^3 cells/ml in Falcon 384-well culture plates (Life Technologies, Merelbeke, Belgium), black with clear bottom, in 45 μl culture medium. Cells were allowed to adhere to plastic for 24 hr. The tested compound was pre-diluted (1/50 in culture medium) and 5 μl pre-diluted compound was added to the wells. Following 4-day incubation, 10 μl of the Alamar Blue solution was added to each well and the cells were further incubated for 4 hrs (HCT116) or 24 hrs (PC-3) at 37° C. The fluorescence intensity was measured for each well on a Fluorescence plate reader (Fluorskan, Labsystems, 540 nm excitation and 590 nm emission)
The antiproliferative activity was calculated as percentage of remaining viable cells in treated versus control (untreated cells) conditions. Within an experiment, the result for each experimental condition is the mean of 3 replicate wells. When appropriate, the experiments were repeated to establish full concentration-response curves. When appropriate, IC50-values (concentration of the drug, needed to reduce cell growth to 50% of the control) were computed using probit analysis for graded data (Finney, D. J., Probit Analyses, 2nd Ed. Chapter 10, Graded Responses, Cambridge University Press, Cambridge 1962). Herein the effects of test compounds are expressed as pIC50 (the negative log value of the IC50-value) (see Table 2).

Row | IC50 (PC-3 cells) [nM] | PC3 antiproliferative activity pIC50 (PC-3 cells; PC3 cells) | SMILES | minimal effective concentration (HCT116 cells) [µM] | Mitotic arrest HCT116 LAD (HCT116 cells; HCT116 cells, the values are: pLAD (−log M lowest active dose))
1 | 158 | – | C#Cc1cccc(CC(C)(C#N)c2ccc3cc(CC)c(=O)[nH]c3c2)c1 (racemic) [Compound 168] | 0.0316 | –
2 | – | 5.4 | CCc1cc2ccc(C(C)(C#N)CC3COc4ccccc4O3)cc2[nH]c1=O (single isomer, unassigned) [Compound 48] | – | 6.5
3 | 1580 | – | CCc1cc2ccc([C@@](C)(C#N)CCOc3ccccc3)cc2[nH]c1=O (single isomer, unassigned) [Compound 150] | 0.316 | –
4 | 1000 | – | Cc1cc2ccc([C@@](C)(C#N)CCOc3ccccc3)cc2[nH]c1=O (single isomer, unassigned) [Compound 164] | 0.1 | –
5 | > 10000 | – | CCc1cc2ccc(C(C)(C#N)Cc3cccc(C(=O)O)c3)cc2[nH]c1=O (stereo not drawn) [Compound 10] | 10 | –
6 | 1580 | – | CCc1cc2ccc(C(C)(C#N)Cc3cccc(-c4nc(C)no4)c3)cc2[nH]c1=O (stereo not drawn) [Compound 11] | 0.316 | –
7 | 63.1 | – | CCc1cc2ccc(C(C)(C#N)Cc3cccc(C(=O)OC)c3)cc2[nH]c1=O (stereo not drawn) [Compound 12] | 0.1 | –
8 | 7940 | – | CCc1cc2ccc(C(C)(C#N)Cc3cccc(C(=O)NC)c3)cc2[nH]c1=O (stereo not drawn) [Compound 13] | 1 | –
9 | > 10000 | – | CCc1cc2ccc(C(C)(C#N)Cc3cccc(NS(C)(=O)=O)c3)cc2[nH]c1=O (stereo not drawn) [Compound 14] | 10 | –
10 | 2510 | – | CCc1cc2ccc(C(C)(C#N)Cc3cccc(N)c3)cc2[nH]c1=O (stereo not drawn) [Compound 15] | 1 | –
11 | > 10000 | – | CCc1cc2ccc(C(C)(C#N)Cc3cccc(NC(=O)N4CCOCC4)c3)cc2[nH]c1=O (stereo not drawn) [Compound 16] | 10 | –
12 | 1000 | – | CCc1cc2ccc(C(C)(C#N)Cc3ccccc3Br)cc2[nH]c1=O (stereo not drawn) [Compound 104] | 0.316 | –
13 | 1000 | – | CCc1cc2ccc(C(C)(C#N)Cc3ccccc3C)cc2[nH]c1=O (stereo not drawn) [Compound 105] | 0.1 | –
14 | 794 | – | CCc1cc2ccc(C(C)(C#N)Cc3ccccc3F)cc2[nH]c1=O (stereo not drawn) [Compound 106] | 0.1 | –
15 | 251 | – | CCc1cc2ccc(C(C)(C#N)Cc3cccc(C)c3)cc2[nH]c1=O (stereo not drawn) [Compound 107] | 0.316 | –
16 | > 10000 | – | CCc1cc2ccc(C(C)(C#N)Cc3ccc(C(F)(F)F)cc3)cc2[nH]c1=O (stereo not drawn) [Compound 108] | 3.16 | –
17 | 631 | – | CCc1cc2ccc(C(C)(C#N)Cc3cccc(C(F)(F)F)c3)cc2[nH]c1=O (stereo not drawn) [Compound 109] | 0.316 | –
18 | 200 | – | CCc1cc2ccc(C(C)(C#N)Cc3cccc(OC(F)(F)F)c3)cc2[nH]c1=O (stereo not drawn) [Compound 110] | 0.316 | –
19 | > 10000 | – | CCc1cc2ccc(C(C)(C#N)Cc3ccc(C#N)cc3)cc2[nH]c1=O (stereo not drawn) [Compound 111] | 3.16 | –
20 | 398 | – | CCc1cc2ccc(C(C)(C#N)Cc3cccc(F)c3)cc2[nH]c1=O (stereo not drawn) [Compound 112] | 0.316 | –
21 | 251 | – | CCc1cc2ccc(C(C)(C#N)Cc3cccc(OC)c3)cc2[nH]c1=O (stereo not drawn) [Compound 113] | 0.316 | –

Row | IC50 (PC-3 cells) [nM] | PC3 antiproliferative activity pIC50 (PC-3 cells; PC3 cells) | SMILES | minimal effective concentration (HCT116 cells) [µM] | Mitotic arrest HCT116 LAD (HCT116 cells; HCT116 cells, the values are: pLAD (−log M lowest active dose))
22 | 1580 | – | CCc1cc2ccc(C(C)(C#N)Cc3ccc(OC(F)(F)F)cc3)cc2[nH]c1=O (stereo not drawn) [Compound 114] | 1 | –
23 | 631 | – | CCc1cc2ccc(C(C)(C#N)Cc3ccc(F)cc3)cc2[nH]c1=O (stereo not drawn) [Compound 115] | 0.316 | –
24 | 794 | – | CCc1cc2ccc(C(C)(C#N)Cc3c(F)c(F)c(F)c(F)c3F)cc2[nH]c1=O (stereo not drawn) [Compound 116] | 0.1 | –
25 | 2000 | – | CCc1cc2ccc(C(C)(C#N)Cc3ccc(C)cc3)cc2[nH]c1=O (stereo not drawn) [Compound 117] | 1 | –
26 | 1260 | – | CCc1cc2ccc(C(C)(C#N)Cc3ccc(Br)cc3)cc2[nH]c1=O (stereo not drawn) [Compound 118] | 1 | –
27 | 2510 | – | CCc1cc2ccc(C(C)(C#N)Cc3ccc(OC)cc3)cc2[nH]c1=O (stereo not drawn) [Compound 119] | 1 | –
28 | 794 | – | CCc1cc2ccc(C(C)(C#N)Cc3cccc(F)c3F)cc2[nH]c1=O (stereo not drawn) [Compound 120] | 0.1 | –
29 | 631 | – | CCc1cc2ccc(C(C)(C#N)Cc3cccc(Cl)c3Cl)cc2[nH]c1=O (stereo not drawn) [Compound 121] | 0.316 | –
30 | 398 | – | CCc1cc2ccc(C(C)(C#N)Cc3ccc4ccccc4c3)cc2[nH]c1=O (stereo not drawn) [Compound 122] | 0.316 | –
31 | > 10000 | – | CCc1cc2ccc(C(C)(C#N)Cc3ccc4c(c3)nnn4C)cc2[nH]c1=O (stereo not drawn) [Compound 123] | 3.16 | –
32 | 2000 | – | CCc1cc2ccc(C(C)(C#N)Cc3ccc4c(c3)OCCO4)cc2[nH]c1=O (stereo not drawn) [Compound 124] | 0.316 | –
33 | 251 | – | CCc1cc2ccc(C(C)(C#N)Cc3cc(C)cc(C)c3)cc2[nH]c1=O (stereo not drawn) [Compound 125] | 0.1 | –
34 | 200 | – | CCc1cc2ccc(C(C)(C#N)Cc3cc(F)cc(Cl)c3)cc2[nH]c1=O (stereo not drawn) [Compound 126] | 0.1 | –
35 | 3980 | – | CCc1cc2ccc(C(C)(C#N)CC#Cc3cccc(F)c3)cc2[nH]c1=O (stereo not drawn) [Compound 184] | – | –
36 | 7940 | – | Cc1cc2ccc([C@@](C)(C#N)[C@@H]3CCc4cc(C#N)ccc43)cc2[nH]c1=O [Compound 245] | – | –
37 | 1000 | – | CCc1cc2ccc([C@](C)(C#N)C[C@@H]3CCc4cc(C)ccc4O3)cc2[nH]c1=O [Compound 251] | – | –
38 | 251 | – | CCc1cc2ccc([C@@](C)(C#N)C[C@@H]3CCc4cc(C)ccc4O3)cc2[nH]c1=O [Compound 252] | – | –
39 | 2510 | – | CCc1cc2ccc(C(C#N)(CC)CCOc3ccc(C#N)cc3)cc2[nH]c1=O (stereo not drawn) [Compound 271] | – | –
40 | 200 | – | Cc1cc2ccc([C@@](C)(C#N)[C@H]3CCc4cc(C#N)ccc43)cc2[nH]c1=O [Compound 389] | – | –
41 | 794 | – | CCc1cc2ccc(C(C#N)(CC)C3CCc4ccc(F)cc43)cc2[nH]c1=O (stereo not drawn) [Compound 391] | – | –
